In patent US9499495B2, “Quinazolines and azaquinazolines as dual inhibitors of RAS/RAF/MEK/ERK and PI3K/AKT/PTEN/mTOR pathways” (Asana Biosciences, LLC, priority 2013, dated 2016):

Experiments:
B-RAFV600E = biological target: T1, B-RAFV600E (Homo sapiens, UniProt P15056, V600E); experiment: B-RAFV600E radiometric assay; assay type: biochemical; conditions: read-out: Kinase assay B-Raf
T1 construct: purchased Millipore, USA 14-557
Procedure, shortened: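 B-RAFV600E was preincubated 45 min at rt with compound in 1% DMSO. MEK-K97M (0.5 μg), 5 μM final cold ATP and [γ-32P]ATP were then added for 2 h at rt. Phosphorylated MEK was captured on P81 paper and scintillation-counted; IC50 came from a sigmoidal dose-response fit.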

mTOR kinase = biological target: T2, mTOR kinase (Homo sapiens, UniProt P42345); experiment: mTOR kinase TR-FRET assay; assay type: biochemical
T2 construct: purchased Millipore, US
Procedure, shortened: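 TR-FRET with ULight-p70 S6K (Thr 389) peptide (50 nM) and 20 μM ATP in 50 mM HEPES pH 7.5, 1 mM EGTA, 3 mM MnCl2; compound pre-incubated with enzyme before substrate addition, reaction at rt, EDTA-stopped. Eu anti-phospho antibody read 665/615 nm; IC50 from sigmoidal dose-response fit.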

pERK in A375 cells = experiment: In Cell Western (ICW) assay, pERK in A375 cells; assay type: cell-based; conditions: Homo sapiens, A-375, 3 h treatment
Procedure, shortened: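 After a 3 h compound treatment at 37 °C, fixed RKO or A375 cells were probed for phospho-ERK1/2 (T202/Y204), phospho-S6RP or phospho-AKT T308 and detected with a Eu-tagged anti-rabbit antibody (ex 340/em 615 nm), with Hoechst signal as the cell-number correction. Inhibition was referenced to DMSO, and IC50 values came from sigmoidal dose-response curves.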

A375 cells = experiment: XTT assay for cell viability, A375 cells; assay type: cell-based; conditions: Homo sapiens, A-375, 72 h
Procedure, shortened: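 GI50 derived by sigmoidal dose-response fitting of proliferation normalised to DMSO control (100%). Readout: A450 after 2-3 h with XTT (1 mg/ml)/PMS (25 μM), following 72 h compound treatment at 37° C., 5% CO2 of cells plated at 1000-2000 per well the previous day.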

pERK in RKO cells = experiment: In Cell Western (ICW) assay, pERK in RKO cells; assay type: cell-based; conditions: Homo sapiens, 3 h treatment
Procedure: (§1) Cell lines A375, A2058 and RKO obtained from the ATCC as provided above, were grown, and after attaining ˜80% confluency were trypsinized, centrifuged and resuspended in fresh media. The cells were seeded at the specified density (20,000 to 50,000) in a 96-well format black-well clear bottom plate (Corning) and incubated overnight at 37° C. in a 5% CO2 incubator. The next day, compound dilutions of test compounds were prepared in 100% DMSO followed by dilutions in respective media. Treatment of test compounds was performed for 3 h at 37° C. in 5% CO2 incubator. Following 3 h drug treatment, the conditional media was discarded and the cells were washed once with cPBS (PBS containing 0.1% magnesium chloride hexahydrate and 0.1% anhydrous calcium chloride) and fixed with 4% paraformaldehyde in cPBS for 1 h at rt. After fixing, the cells were given three washes using cPBST (cPBS containing 0.1% Triton™ X-100 reagent) and then blocked using blocking solution (5% skimmed milk powder or 5% BSA prepared in cPBST) for 2 h at rt with shaking at 300 rpm. The cells were again washed thrice with cPBST and incubated with primary antibody phospho-p44/42 MAPK(Erk1/2)(Thr202/204) antibody (Cell Signaling, Catalog # 9101L), phospho S6 ribosomal protein (Cell Signaling, Catalog #4858L), phospho AKT (Thr 308) (Cell Signaling, Catalog #9275) or phospho AKT (Ser 473) (Cell Signaling, Catalog #4060L) in specified dilutions (1:500-1:2500), prepared in respective blocking solutions, in a racker overnight at 4° C. The next day, the cells were washed with 1× Delfia® wash buffer (4×1 wash) and incubated with secondary antibody (Delfia®-Eu-N1 labeled anti-rabbit antibody; PerkinElmer, Catalog #AD0105; dilutions: 1:2000 to 1:6000 in Delfia® assay buffer (PerkinElmer, Catalog #1244-111)) for 2 h at rt in the dark at 300 rpm. The cells were then given four washes with 1× Delfia® wash buffer and incubated with Wallac Delfia® Enhancement solution (100 μL; PerkinElmer, Catalog #1244-105) for 20 min at rt in the dark at 300 rpm. The fluorescence emission was then read at 615 nm with an excitation wavelength of 340 nm using a Victor V5 Fluorometer (Perkin Elmer, US). The cells were then washed once with 1×cPBS and incubated with 100 μL of 0.5 mg/mL of Hoechst 33258 dye prepared in cPBS and read at 460 nm with 355 nm excitation, thereby evaluating the correction factor.
(§2) The % inhibition for the test compounds of formula (I) (new chemical entities (NCEs)) was calculated keeping DMSO control as 0% and the IC50 values were determined using sigmoidal dose response curve fit in GraphPad Prism® v5 software.

RKO cells = experiment: XTT assay for cell viability, RKO cells; assay type: cell-based; conditions: Homo sapiens, 72 h
Procedure: Cell lines (A375 ATCC No. CRL-1619, A2058 ATCC No. CRL-11147 and RKO ATCC No. CRL-2577, American Type Culture Collection (ATCC), Manassas Va.) once attaining ˜80% confluency were trypsinized, centrifuged and resuspended in fresh media. Cells (1000-2000/per well) were seeded in 96-well plate and incubated over-night at 37° C. in a 5% CO2 incubator. Compound dilutions were prepared in 100% DMSO followed by dilutions in the respective media. The cells were treated with NCEs for 72 h at 37° C. in 5% CO2 incubator. After 72 h, freshly prepared XTT (1 mg/ml)/PMS (25 μM) solution was added, incubated for 2 to 3 h at 37° C. and the absorbance was measured at 450 nm using an ELISA plate reader. Keeping DMSO control as 100%, the effect of the compound to inhibit the cell proliferation was calculated and the GI50 values were determined using sigmoidal dose response curve fit in GraphPad Prism® v5 software.

pS6RP in RKO cells = experiment: In Cell Western (ICW) assay, pS6RP in RKO cells; assay type: cell-based; conditions: Homo sapiens, 3 h treatment
Procedure: as §1, §2

PI3Kα = biological target: T3, PI3Kα (Homo sapiens, UniProt P42336); experiment: PI3 Kinase alpha TR-FRET assay; assay type: biochemical
T3 construct: made in house; host or cells: SF9 cells
Procedure: Compound inhibition for PI3Kα was determined in a homogeneous TR-FRET assay using a PI3Kα assay kit (Millipore, US, Catalog #33-016). The PI3 kinase catalyzes phosphorylation of […] (PIP2) to phosphatidylinositol 3,4,5-trisphosphate (PIP3) in the presence of ATP and Mg^2+. The PIP3 product is detected by displacement of biotin-PIP3 from an energy transfer complex consisting of Europium labeled anti-GST monoclonal antibody, a GST-tagged pleckstrin homology (PH) domain, biotinylated PIP3 and Streptavidin-Allophycocyanin (APC). Excitation of Europium in the complex results in an energy transfer to the APC and a fluorescence emission at 665 nm.
Compounds tested were dissolved in DMSO and directly distributed into 384-well plates at a volume of 0.5 μL. P110/P85a/PIP2 mixture (14.5 μL) was added to compound wells and incubated for 30 min at rt […]. P110/P85a was expressed in SF9 cells and purified in-house. 5 ng P110/P85a was used in the assay. The kinase reaction was started by the addition of ATP. The assay concentrations of both PIP2 and ATP were 40 μM. The reaction mixture was incubated for 30 min and was terminated by the addition of stop mix and detection mix. Fluorescence was measured at 615 and 665 nm upon excitation at 340 nm in a Victor V5 fluorometer (Perkin Elmer, US). The fluorescence emission ratio at 665 to 615 nm, proportional to the kinase activity, was plotted against the compound concentration to generate dose-response curves and IC50 values were determined.

T2 sequence (P42345 1362-2549 limits assumed): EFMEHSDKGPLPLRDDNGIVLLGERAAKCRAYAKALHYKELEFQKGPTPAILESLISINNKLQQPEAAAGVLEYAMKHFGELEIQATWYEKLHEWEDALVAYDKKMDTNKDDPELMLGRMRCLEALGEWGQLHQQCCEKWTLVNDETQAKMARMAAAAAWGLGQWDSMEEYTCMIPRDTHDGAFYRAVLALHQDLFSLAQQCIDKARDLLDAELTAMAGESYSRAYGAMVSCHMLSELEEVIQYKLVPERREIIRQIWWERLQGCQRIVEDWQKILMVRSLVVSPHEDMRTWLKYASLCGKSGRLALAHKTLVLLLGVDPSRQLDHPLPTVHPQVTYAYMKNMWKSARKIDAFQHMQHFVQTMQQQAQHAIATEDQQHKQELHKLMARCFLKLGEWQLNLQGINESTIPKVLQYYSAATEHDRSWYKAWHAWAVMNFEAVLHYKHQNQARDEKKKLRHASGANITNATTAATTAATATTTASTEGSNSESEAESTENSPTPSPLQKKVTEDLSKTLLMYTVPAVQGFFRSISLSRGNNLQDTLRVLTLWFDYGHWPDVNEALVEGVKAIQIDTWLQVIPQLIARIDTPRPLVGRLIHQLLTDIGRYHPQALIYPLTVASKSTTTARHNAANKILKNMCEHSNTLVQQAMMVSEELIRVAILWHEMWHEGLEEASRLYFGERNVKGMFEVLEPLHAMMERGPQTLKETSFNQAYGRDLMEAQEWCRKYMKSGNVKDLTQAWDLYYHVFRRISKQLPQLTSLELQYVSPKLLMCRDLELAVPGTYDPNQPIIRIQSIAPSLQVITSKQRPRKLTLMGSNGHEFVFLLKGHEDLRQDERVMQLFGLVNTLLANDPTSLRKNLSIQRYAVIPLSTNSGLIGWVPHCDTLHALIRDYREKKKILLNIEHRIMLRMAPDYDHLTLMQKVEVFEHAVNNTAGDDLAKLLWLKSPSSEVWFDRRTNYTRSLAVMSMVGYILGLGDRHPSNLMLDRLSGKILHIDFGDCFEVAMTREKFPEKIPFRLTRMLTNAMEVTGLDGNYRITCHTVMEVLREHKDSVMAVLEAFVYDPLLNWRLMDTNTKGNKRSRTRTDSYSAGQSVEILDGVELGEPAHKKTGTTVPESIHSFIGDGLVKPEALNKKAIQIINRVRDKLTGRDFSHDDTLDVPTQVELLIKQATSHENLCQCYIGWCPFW
T1 sequence (P15056 416-766 V600E limits assumed): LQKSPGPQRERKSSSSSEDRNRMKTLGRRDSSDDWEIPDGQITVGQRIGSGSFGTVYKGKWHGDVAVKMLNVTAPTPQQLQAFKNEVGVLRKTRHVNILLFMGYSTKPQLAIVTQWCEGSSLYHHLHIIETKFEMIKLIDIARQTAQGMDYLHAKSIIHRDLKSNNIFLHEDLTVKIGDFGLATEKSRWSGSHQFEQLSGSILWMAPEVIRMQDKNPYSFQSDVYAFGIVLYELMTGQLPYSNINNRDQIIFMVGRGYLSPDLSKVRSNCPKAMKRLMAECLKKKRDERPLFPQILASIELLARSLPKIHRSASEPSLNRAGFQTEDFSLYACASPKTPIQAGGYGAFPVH
T3 sequence (P42336 whole entry, species assumed): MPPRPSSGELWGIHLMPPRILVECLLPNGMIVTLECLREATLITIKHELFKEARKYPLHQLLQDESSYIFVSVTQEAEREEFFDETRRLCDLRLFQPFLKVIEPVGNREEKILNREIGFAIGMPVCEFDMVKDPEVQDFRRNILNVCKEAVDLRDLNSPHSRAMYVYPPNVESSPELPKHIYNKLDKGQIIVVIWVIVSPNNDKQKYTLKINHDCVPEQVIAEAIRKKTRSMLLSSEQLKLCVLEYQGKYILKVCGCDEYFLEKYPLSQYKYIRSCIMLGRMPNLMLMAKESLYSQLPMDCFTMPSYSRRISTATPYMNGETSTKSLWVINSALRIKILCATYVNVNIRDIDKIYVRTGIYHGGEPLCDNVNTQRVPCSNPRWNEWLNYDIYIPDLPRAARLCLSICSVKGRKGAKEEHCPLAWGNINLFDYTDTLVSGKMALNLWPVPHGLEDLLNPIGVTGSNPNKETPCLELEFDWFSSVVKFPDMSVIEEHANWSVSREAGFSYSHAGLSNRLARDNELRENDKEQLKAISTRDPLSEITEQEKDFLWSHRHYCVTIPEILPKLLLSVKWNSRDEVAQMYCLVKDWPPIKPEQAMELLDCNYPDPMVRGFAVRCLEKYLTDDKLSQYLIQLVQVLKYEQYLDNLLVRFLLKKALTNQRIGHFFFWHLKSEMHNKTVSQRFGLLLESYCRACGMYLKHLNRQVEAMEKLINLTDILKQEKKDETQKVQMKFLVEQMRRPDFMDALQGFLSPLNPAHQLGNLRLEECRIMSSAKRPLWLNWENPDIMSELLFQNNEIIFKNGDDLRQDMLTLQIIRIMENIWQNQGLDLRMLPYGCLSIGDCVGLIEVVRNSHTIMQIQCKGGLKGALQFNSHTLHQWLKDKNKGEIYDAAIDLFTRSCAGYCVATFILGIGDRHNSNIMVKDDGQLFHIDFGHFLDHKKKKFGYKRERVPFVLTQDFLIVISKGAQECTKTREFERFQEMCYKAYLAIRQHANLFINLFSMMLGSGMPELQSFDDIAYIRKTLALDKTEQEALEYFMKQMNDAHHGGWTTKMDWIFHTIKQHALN
T3 sequence (P27986 whole entry partner, species assumed): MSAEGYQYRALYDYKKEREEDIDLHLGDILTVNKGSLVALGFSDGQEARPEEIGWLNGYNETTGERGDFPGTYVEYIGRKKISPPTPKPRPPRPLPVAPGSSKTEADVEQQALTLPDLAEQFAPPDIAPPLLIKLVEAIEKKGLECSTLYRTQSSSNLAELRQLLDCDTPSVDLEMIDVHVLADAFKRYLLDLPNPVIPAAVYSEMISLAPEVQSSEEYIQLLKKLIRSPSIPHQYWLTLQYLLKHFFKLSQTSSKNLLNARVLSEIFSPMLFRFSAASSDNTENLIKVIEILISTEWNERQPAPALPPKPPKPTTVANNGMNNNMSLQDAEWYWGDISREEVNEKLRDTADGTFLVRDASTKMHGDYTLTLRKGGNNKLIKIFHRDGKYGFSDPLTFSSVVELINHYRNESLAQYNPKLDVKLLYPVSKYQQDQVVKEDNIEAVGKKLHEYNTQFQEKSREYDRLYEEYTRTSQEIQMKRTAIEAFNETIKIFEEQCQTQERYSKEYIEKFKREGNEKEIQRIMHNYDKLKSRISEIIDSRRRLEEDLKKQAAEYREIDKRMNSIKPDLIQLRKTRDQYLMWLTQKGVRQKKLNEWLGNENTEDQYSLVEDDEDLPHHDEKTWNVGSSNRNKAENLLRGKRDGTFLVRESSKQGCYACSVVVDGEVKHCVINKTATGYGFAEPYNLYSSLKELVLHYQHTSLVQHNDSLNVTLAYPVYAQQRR

Structure (SMILES) | IC50 (B-RAFV600E) [nM] | IC50 (mTOR kinase) [nM] | IC50 (pERK in A375 cells) [nM] | IC50 (A375 cells) [nM] | IC50 (pERK in RKO cells) [nM] | IC50 (pS6RP in RKO cells) [nM] | IC50 (PI3Kα) [nM] | IC50 (RKO cells) [nM]
CNC(=O)Nc1ccc(-c2nc(N3CCOCC3)c3cc(-c4cccc(NS(=O)(=O)c5c(F)cccc5F)c4F)cc(OC)c3n2)cc1 [Example 1, 2,6-Difluoro-N-(2-fluoro-3-(8-methoxy-2-(4-(3-methylureido)phenyl)-4-morpholinoquinazolin-6-yl)phenyl)benzenesulfonamide] | 1 to 100 | 1 to 100 | 100 to 1000 | 100 to 1000 | 100 to 1000 | – | – | 1000 to 10000
COc1cc(-c2cccc(NS(=O)(=O)CCCF)c2F)cc2c(N3CCOCC3)nc(-c3cnc4[nH]ccc4c3)nc12 [Example 40, 3-fluoro-N-(2-fluoro-3-(8-methoxy-4-morpholino-2-(1H-pyrrolo[2,3-b]pyridin-5-yl)quinazolin-6-yl)phenyl)propane-1-sulfonamide] | 1 to 100 | 1 to 100 | 1 to 100 | 100 to 1000 | – | 100 to 1000 | – | –
CCOc1cc(-c2cccc(NS(=O)(=O)CCCF)c2F)cc2c(N3CCOC[C@@H]3C)nc(-c3ccc(N)nc3)nc12 [Example 65, (S)-N-(3-(2-(6-aminopyridin-3-yl)-8-ethoxy-4-(3-methylmorpholino)quinazolin-6-yl)-2-fluorophenyl)-3-fluoropropane-1-sulfonamide] | 1 to 100 | 1 to 100 | 1 to 100 | 100 to 1000 | – | 100 to 1000 | – | 100 to 1000
COCCOc1cc(-c2cccc(NS(=O)(=O)CCCF)c2F)cc2c(N3CCOCC3)nc(-c3ccc(N)nc3)nc12 [Example 67, N-(3-(2-(6-aminopyridin-3-yl)-8-(2-methoxyethoxy)-4-morpholinoquinazolin-6-yl)-2-fluorophenyl)-3-fluoropropane-1-sulfonamide] | 1 to 100 | 1 to 100 | 100 to 1000 | – | – | 100 to 1000 | – | 1 to 100
COCCOc1cc(-c2cccc(NS(=O)(=O)CCCF)c2F)cc2c(N3CCOCC3)nc(-c3cnc(N)nc3)nc12 [Example 68, N-(3-(2-(2-aminopyrimidin-5-yl)-8-(2-methoxyethoxy)-4-morpholinoquinazolin-6-yl)-2-fluorophenyl)-3-fluoropropane-1-sulfonamide] | 1 to 100 | 1 to 100 | 1 to 100 | – | – | 100 to 1000 | – | 100 to 1000
Nc1cc(C(F)(F)F)c(-c2nc(N3CCOCC3)c3nc(-c4cccc(NS(=O)(=O)c5cc(F)ccc5F)c4F)ccc3n2)cn1 [Example 104, N-(3-(2-(6-amino-4-(trifluoromethyl)pyridin-3-yl)-4-morpholinopyrido[3,2-d]pyrimidin-6-yl)-2-fluorophenyl)-2,5-difluorobenzenesulfonamide] | 1 to 100 | – | 1 to 100 | 1 to 100 | 100 to 1000 | – | 1 to 100 | –
C[C@@H]1COCCN1c1nc(-c2cnc(N)cc2F)nc2ccc(-c3cccc(NS(=O)(=O)CCCF)c3F)nc12 [Example 140, (R)-N-(3-(2-(6-amino-4-fluoropyridin-3-yl)-4-(3-methylmorpholino)pyrido[3,2-d]pyrimidin-6-yl)-2-fluorophenyl)-3-fluoropropane-1-sulfonamide] | 1 to 100 | 100 to 1000 | 100 to 1000 | 100 to 1000 | 1 to 100 | – | – | 100 to 1000

The next lines start with results.

IC50 (B-RAFV600E) [nM] | IC50 (mTOR kinase) [nM] | IC50 (pERK in A375 cells) [nM] | IC50 (A375 cells) [nM] | IC50 (pERK in RKO cells) [nM] | IC50 (pS6RP in RKO cells) [nM] | IC50 (PI3Kα) [nM] | Structure (SMILES) | IC50 (RKO cells) [nM]
1 to 100 | 100 to 1000 | 1 to 100 | 1 to 100 | – | 100 to 1000 | – | CC(C)Oc1cc(-c2cccc(NS(=O)(=O)CCCF)c2F)cc2c(N3CCOC[C@H]3C)nc(-c3cnc(N)nc3)nc12 [Example 64, (R)-N-(3-(2-(2-aminopyrimidin-5-yl)-8-isopropoxy-4-(3-methylmorpholino)quinazolin-6-yl)-2-fluorophenyl)-3-fluoropropane-1-sulfonamide] | –
1 to 100 | 100 to 1000 | – | – | 1 to 100 | – | – | CNc1ncc(-c2nc(N3CCOC[C@H]3C)c3cc(-c4cccc(NS(=O)(=O)CCCF)c4F)cc(OC)c3n2)cn1 [Example 136, (R)-3-fluoro-N-(2-fluoro-3-(8-methoxy-2-(2-(methylamino)pyrimidin-5-yl)-4-(3-methylmorpholino)quinazolin-6-yl)phenyl)propane-1-sulfonamide] | 100 to 1000
1 to 100 | 100 to 1000 | 1 to 100 | 100 to 1000 | 1 to 100 | – | – | CCOc1cc(-c2cccc(NS(=O)(=O)CCCF)c2F)cc2c(N3CCOC[C@H]3C)nc(-c3cnc(N)nc3)nc12 [Example 137, (R)-N-(3-(2-(2-aminopyrimidin-5-yl)-8-ethoxy-4-(3-methylmorpholino)quinazolin-6-yl)-2-fluorophenyl)-3-fluoropropane-1-sulfonamide] | 1 to 100
